According to US20150218516A1, “COMPOSITIONS AND METHODS FOR ENHANCING IMMUNE RESPONSES MEDIATED BY ANTIGEN-PRESENTING CELLS” (The Board of Regents of the University of Nebraska, priority 2007, published 2015):
Entries after “also recorded” stand apart in the source; their conditions may differ. Non-standard residues stand in square brackets, D forms with d. Residues, ends and D or L forms follow the SMILES beside them.

Legend:
[1] = system: immunizing peptide and free peptides; assay: ELISA of sera from mice immunized with HBsAg CTL epitope-C5a agonist constructs; format: in vivo; details: sera after three injections
Method: (§1) Groups of six to eight BALB/c mice were given bilateral s.c. injections in the inguinal area with (100 al each side) of a PBS solution containing 50-100 μg of the peptides. Booster injections were given s.c. in the inguinal region at 21-day intervals. Sera for Ab analysis were obtained by retro-orbital bleeds of mice under CO2 narcosis.
Thus, it was of interest to determine whether sera from mice immunized with the control peptides and epitope-C5a agonist constructs contained Ab directed against any of the peptides. […] (SEQ ID NO:12), […]

[2] = system: human umbilical artery; assay: Smooth muscle contraction of human umbilical artery; format: cell-based
Method: (§2) Statistical analysis of the values obtained from pharmacologic assays was performed using one-way analysis of variance (ANOVA).

[3] = system: P815S (HBsAg transfectant) target cells; assay: HBsAg-specific CTL response of immunized mice, 51Cr-release cytotoxicity assay; format: in vivo, BALB/c mice; details: for % Specific Lysis: s.c. in PBS
Method: as §1
Three weeks after secondary) (2° immunization and two weeks after tertiary)(3° immunization, two to three mice from each experimental group were sacrificed by cervical dislocation and their spleens removed aseptically. Pooled splenic single-cell suspensions were prepared in RPMI-1640 medium (Sigma, St. Louis, Mo.) containing 10% FBS (Hyclone, Salt Lake City, Utah) and the following supplements: 10 mM HEPES buffer, 50 μM 2-ME, 2 mM L-glutamine, 50 μg/ml gentamicin sulfate, 100 Um′ penicillin, and 50 μg/ml streptomycin (all supplements from Sigma). This supplemented complete medium is designated RP10-SC. For culture, 75×10^6 pooled spleen cells in 5 ml of RP10-SC were pipetted into a 25 cm^2 T-flask (Corning). Next, 5 ml of RP 10-SC containing 150 nM of synthetic, L^d MHC class I-restricted peptide, […] (SEQ ID NO:12) were added to the flask. The flasks were incubated undisturbed in an upright position at 37° C. in 5% CO2. After 4 days of incubation, the cells were recovered from the T-flasks, washed once by centrifugation in fresh RP10-SC, resuspended in 5 ml RP10-SC, counted, and adjusted to 5×10^6 viable cells/ml.
The specific cell target used for measuring CTL activity was P815S, a transfectant cell line of P815 (H-2^d) expressing the HBsAg (14). P815S was grown in RP10-SC medium containing 400 μg/ml geneticin disulfate (G418, Sigma). The parental H-2^d mastocytoma cell line, P815 (ATTC #TIB64) grown in RP10-SC medium, was used as a non-specific target for CTL assays to measure % non-specific lysis.
The target cells, either P815S or P815, were washed 2 times in RP10-SC. For labeling, 5×10^6 target cells were mixed with 250 μCi ^51Cr-sodium chromate[400-1200 Ci (14.8-44.4 TBq)]/[…]; NEN Dupont, Boston, Mass.) in a 1.0 ml volume in a 50 ml conical tube and incubated in a 37° C. water bath for 90 mins. After incubation, the labeled cells were washed 3 times by centrifugation using 15 ml volumes of fresh RP10-SC and allowed to stand at room temperature for 30 mins. The pelleted cells were resuspended in RP10-SC at 1×10^6 cells/ml.
The recovered splenic effector cells at 5×10^6 cells/ml were serially diluted in triplicate in wells of round-bottom 96 well plates (Corning, 25850) in a total volume of 100 al/well and using RP10-SC as the diluent. Next, 100 μl volumes of ^51Cr-labeled targets, P815S or P815, at 1×10^6 cells/ml were added to the wells. Maximum release (MR) wells contained 100 al of target cells and 100 al of 2% (v/v) Tween 20 while spontaneous release (SR) wells contained labeled cells in medium alone. Effector-to-target ratios of 50:1, 25:1, 12.5:1, and 6.25:1 were routinely employed. The plates were centrifuged at 400×g and incubated at 37° C. in 5% CO2 for 4 hrs. After incubation, the supernatant fractions in the wells were collected using a Skatron Supernatant Collection System (Skatron Instruments, Sterlin, Va.). The amount of ^51Cr radioactivity in the supernatant fractions was measured using a Wallac 1470 Wizard gamma counter (Turku, Finland).

[4] = system: human PMNs; assay: MPO release from human PMNs; format: cell-based
Method: as §2

[5] = system: Caki-1 cells; assay: In vitro cytotoxicity of T lymphocytes cultured with peptide-pulsed dendritic cells against Caki-1; format: cell-based, human; details: cord blood-derived T lymphocytes cultured with dendritic cells exposed to the peptide
[6] = system: LNCaP cells
Method: An exemplary in vitro cytotoxicity assay comprises the following steps. Antigen presenting cells, such as dendritic cells, were obtained from bone marrow or blood. Dendritic cells were preferentially differentiated in culture through the addition of IL-4, GM-CSF, and TNFα for 7-10 days. Dendritic cells were then pulsed with peptides for 18 hours. MNCs were also isolated from spleens or blood (e.g., cord or peripheral) and cultured in IL-2 and GM-CSF for 7-10 days for enhanced lymphocyte proliferation. The pulsed dendritic cells were then co-cultured with the lymphocyte-enriched MNCs at a 1:10 ratio for 4 days. Lymphocyte-enriched MNC effector cells were then co-cultured with tumor target cells labeled with the bioactive fluorescent dye Calcein AM for 4 hours. Lysed cells were detected by photometrically measuring the released fluorescent dye.
Certain prostate carcinomas express prostate-specific membrane antigen (PSMA). […] The fusion peptides were administered to APCs which were subsequently presented to a lymphocyte-enriched population from cord blood as described hereinabove in Example 6. After antigen presentation by pulsed DC in co-culture, CTLs were tested for their ability to lyse three different target cell monolayers in an in vitro cytotoxicity assay. […] The fusion peptides were also administered to APCs which were subsequently presented to a adult peripheral blood-derived CTLs. In vitro cytotoxicity against the human prostate cancer cell line LNCaP was then assessed using the bioactive fluorescent dye calcein AM (FIG. 11D).

[7] = system: SKmel-28; assay: In vitro cytotoxicity of T lymphocytes cultured with peptide-pulsed dendritic cells against SKmel-28; format: cell-based, human; details: UCB or PBMC derived T lymphocytes cultured with dendritic cells exposed to the peptide
Method: (§3) The tumor peptide antigen tyrosinase is expressed on more than 70% of human melanoma cells that are human leukocyte antigen (HLA) A2 positive. […] The dendritic cells, presumably expressing the tyrosinase epitope, were then cultured with a lymphocyte-enriched cell population which was then cultured with melanoma cells to determine melanoma cell killing using a cytotoxic T lymphocyte assay.

[8] = system: A-375 cell line (melanoma); format: cell-based, human
Method: as §3

## CC[C@H](C)[C@H](N)C(=O)N1CCC[C@H]1C(=O)N[C@@H](CCC(N)=O)C(=O)N[C@@H](CO)C(=O)N[C@@H](CC(C)C)C(=O)N[C@@H](CC(=O)O)C(=O)N[C@@H](CO)C(=O)N[C@@H](Cc1c[nH]c2ccccc12)C(=O)N[C@@H](Cc1c[nH]c2ccccc12)C(=O)N[C@H](C(=O)N[C@@H](CO)C(=O)N[C@@H](CC(C)C)C(=O)N[C@@H](CCCNC(=N)N)C(=O)N[C@@H](CCCNC(=N)N)C(=O)N[C@@H](Cc1ccc(O)cc1)C(=O)N[C@@H](CO)C(=O)N[C@@H](Cc1ccccc1)C(=O)N[C@@H](CCCCN)C(=O)N1CCC[C@H]1C(=O)N[C@@H](CCSC)C(=O)N1CCC[C@H]1C(=O)N[C@@H](CC(C)C)C(=O)N[C@H](C)C(=O)N[C@@H](CCCNC(=N)N)C(=O)O)[C@@H](C)O (H-IPQSLDSWWTSLRRYSFKPMPL[dA]R-OH)
[1]
  serum binding to free peptides […] or YSFKPMPLaR: did not bind
[2]; concentration resulting in 50% maximum contraction
  EC50: 0.161 µM
[2]; umbilical artery contraction and MPO release assays
  agonist behaviour relative to natural C5a (in words): full agonists
[2]; −log EC50 (M), mean ± SE, n=3
  pD2 ± SE: 6.79 ± 0.31
[3]; Effector:Target 6.25:1, boost day 21, spleen cells day 42
  % Specific Lysis: 9%
[3]; Effector:Target 12.5:1, boost day 21, spleen cells day 42
  % Specific Lysis: 14%
[3]; Effector:Target 25:1, boost day 21, spleen cells day 42
  % Specific Lysis: 23%
[3]; Effector:Target 50:1, boost day 21, spleen cells day 42, restimulated 4 days with S28-39
  % Specific Lysis: 32%
[3]; two or three s.c. injections at 21 day intervals, no added adjuvant
  Ag-specific CTL response (in words): significant CTL response; also recorded: generated an Ag-specific CTL response; also recorded: robust CTL activity
[4]; 50% maximum release of myeloperoxidase
  EC50: 0.54 µM
[4]; −log EC50 (M), mean ± SE, n=3
  pD2 ± SE: 6.27 ± 0.29

## CSCC[C@H](NC(=O)[C@H](CC(=O)O)NC(=O)[C@H](CCCCN)NC(=O)[C@H](Cc1ccccc1)NC(=O)[C@H](CO)NC(=O)[C@@H](N)Cc1ccc(O)cc1)C(=O)N1CCC[C@H]1C(=O)N(C)[C@@H](CC(C)C)C(=O)N[C@H](C)C(=O)N[C@@H](CCCNC(=N)N)C(=O)O [YSFKDMP(MeL)aR]
[5]
  cytotoxicity against tyrosinase-negative Caki-1 (in words): incapable of killing

## YMNGTMSQV [tyrosinase antigen]
[6]
  cytotoxicity against LNCaP (in words): did not exhibit significant cytotoxicity
[7]
  cytotoxicity against SKmel-28 (in words): minimal cytotoxicity
[8]
  cytotoxicity against A-375 (in words): minimal cytotoxicity
